Where two headings read alike, the source gives them in different places.

Consider two compounds from patent US20200113852A1, “METHODS OF PATIENT SELECTION AND TREATING TRXR- OR PRDX-OVEREXPRESSED CANCERS” (TRIACT THERAPEUTICS, INC., priority 2017, published 2020).

In one data set the test system is HCT116 cells. Briefly: Fluorescence microscopy, subcellular localization of Iniparib-biotin targets. The following applies: HCT116, 30 min after adding Iniparib-biotin. It is filed as cell-based, human. The procedure: HCT116 cells were platted on polylysine D coated thin glass bottom microscope chambers (Ibidi). […] For subcellular localization experiments mitochondria were stained with 100 nM Mitotracker Red CMX (Molecular probes) added for 10 min. This stain was performed before fixation (Paraformaldehyde 3.7% in PBS pH 7.4). Biotin was developed, after Triton X100 (0.3% in PBS, 15 min) permeabilization and saturation (1% BSA+1% gelatin in PBS: saturation buffer), with Alexa-488 streptavidin (Molecular Probes) conjugate (1 μg/ml in saturation buffer). Nuclei were stained with Hoechst (Molecular Probes) and samples mounted in anti-fading solution (Ibidi).
Cells were imaged with a PLAN NeoFluar 40× (NA 1.3) or 100×, (NA 1.46) oil objectives on a LSM510 (Zeiss) confocal microscope. Laser lines, filters and dichroic mirrors were selected for maximal separation of the green (Ex./Em. 488/530 nm) and the red fluorescence (Ex./Em. 543/LP 585 nm). Nuclei were observed (Ex./Em. 405/460 nm). For co-localization stacks of images separated by 400 nm along z-axis were acquired. Post-capture processing was done using LSM510 software, and Photoshop (Adobe) was used to make linear adjustments to brightness and contrast.

The next data set concerns TrxR in MDA-MB-231 cells. The data set can be described thus: Endogenous TrxR activity (DTNB reduction assay). The class given is cell-based, human. The following applies: GSH-depleted MDA-MB-231; iniparib 100 μM, Auranofin 1 μM, up to 4 h. The source says: Initial velocities were derived from linear regression analyses and then plotted in double reciprocal plots to obtain the half time of TrxR inhibition using an one phase exponential decay analysis (Prism, GraphPad software).

Data set [1] concerns Trx, JNK, p38MAPK, PARP in HCT116 cells. The data set can be described thus: Cell death signaling western blots (Trx oxidation, phospho-JNK, phospho-p38MAPK, cleaved-PARP).
Description: Cells extracts were analyzed by SDS-PAGE either under reducing conditions or under non-reducing conditions in the case of Trx blot followed by blots anti-phospho-JNK, anti-phospho-p38MAPK, anti-cleaved-PARP and anti-Trx. Results are representative of three independent experiments.
After 2 h at 4° C., lysates were clarified by centrifugation and protein amounts were measured using the BCA assay (Pierce, Thermo scientific).
Equal amounts of proteins were resolved by SDS-PAGE under either non-reducing or reducing (5% 2-mercaptoethanol, 20 min at 60° C.) conditions, using 4-20% gels (Novex, Invitrogen), then subjected to semi-dry electrophoretic transfer onto nitrocellulose membranes.
Another data set relates to MDA-MB-453 cells. Briefly: Cytotoxicity assay (WST-1 cell viability). The following applies: for IC50: Homo sapiens. The procedure:
Cell viability following drug treatments was assessed using WST-1 cell proliferation assay (Roche) Briefly, cells were plated into 96-well plates with 8,000 (HCT116) or 20,000 (MDA-MB-453) cells per well and allowed to attach overnight. Cells were then preincubated for 5 h in the presence or absence of 1 mM BSO. […] After 3 h of incubation at 37° C., the amount of formazan dye was quantified by measuring the optical density at 450 nm with a scanning multiwell spectrophotometer (PerkinElmer).
Cell viability following drug treatments was assessed using WST-1 cell proliferation assay (Roche). Briefly, cells were plated into 96-well plates with 8,000 (HCT116) or 20,000 (MDA-MB-453) cells per well and allowed to attach overnight. Cells were then preincubated for 5 h in the presence or absence of 1 mM BSO. […] After 3 h of incubation at 37° C., the amount of formazan dye was quantified by measuring the optical density at 450 nm with a scanning multiwell spectrophotometer (PerkinElmer).

Data set [2] deals with metastatic triple negative breast cancer. Briefly: Phase 2 and Phase 3 mTNBC trials, 15-gene expression signature analysis (PFS, OS, ORR). The class given is in vivo, human. An excerpt:
Formalin-fixed, paraffin-embedded (FFPE) archival samples from biopsy or surgery at original diagnosis of breast cancer were profiled on the exon-based Affymetrix Hugene1.0ST microarrays using an RNA extraction protocol adapted to the short fragment lengths resulting from RNA degradation in FFPE samples. It was considered that a corpus of n=210 patients for whom clinical outcome data was available in the form of PFS time and associated censoring statuses.
The raw gene expression data from profiling of an initial n=240 FFPE preserved samples, in the form of individual Affymetrix CEL files, was processed using […] estimation. Quality control based on average array brightness excluded 30 outlier scans, and the n=210 remaining profiles were then normalized to each other using quantile normalization. Affymetrix probesets were mapped to genes, in a manner where multiple probesets mapping into the same gene were resolved by assigning the highest intensity to the corresponding gene, this procedure reducing the set of 33,297 probe sets to 20,756 mapped genes. The data was then log 2-transformed, and standardized by mean-subtraction and division by the standard deviation across all 210 samples, for each gene separately. Finally, the data matrix was subsetted to the intersection of the oxidative response set of 102 genes with the set of genes represented on the Hugene1.0ST arrays, resulting in profiles for p=82 genes across all n=210 samples.
A multivariate Cox model using supervised principal components was used to model progression free survival times regressed on gene expression data. […]
In Eq.(1) the variables: x1, l=1, . . . , K, denote projections onto the first K principal components of the data matrix of gene expression vectors, after preliminary reduction to a subset of mtop genes out of the original set of 82, where mtop is a variable parameter, 1≤mtop≤82. For a given mtop, the subset is determined by univariate feature selection (generating a Cox model for each gene independently and selecting the mtop genes with the smallest interaction-term P-values). […]

For data set [3], the system named is newly diagnosed glioblastoma multiforme (GBM). Briefly: Phase II clinical trial GBM, overall survival. It is filed as in vivo, human. The source says:
For assessing the efficacy of the treatment in terms of overall survival, the overall failure rate were estimated and compared to the failure rate of 0.6 per-person year of follow-up regarding the Phase III trial done by Stupp et al. in the same patient population treated with RT plus concomitant and adjuvant temozolomide.
The primary endpoint was death due to all causes. The survival time is defined from time of histological diagnosis to death occurrence. The overall failure rate was expressed as hazard of failure per person-year of follow-up. The total patient population for this part of the study was defined as all patients who have met the eligibility criteria, not met ineligibility criteria, and signed patient informed consent.
It yield above 90% power to detect a 30% reduction in hazard rate with observed hazard ratio of 0.7 (0.42 vs. 0.6) at an alpha level of 0.1 to be significant. The overall failure rate was estimated by dividing the number of events (deaths) by the total exposure time in the study cohort along with 95% confidence intervals. Survival probability and median time of survival was calculated using Kaplan-Meier method.

In the case of `O=C(CCCC[C@@H]1SC[C@@H]2NC(=O)N[C@@H]21)NCCNC(=O)c1ccc(I)c([N+](=O)[O-])c1` [Iniparib-biotin, 4-iodo-3-nitro-N-(2-(5-((3 aS,4S,6aR)-2-oxohexahydro-1H-thieno[3,4-d]imidazol-4-yl)pentanamido)ethyl)benzamide], the “subcellular localization of labeled proteins” value in the data set on HCT116 cells is “cellular proteins were labeled in the cytosol as well as in the nucleus and cytoplasmic structures”.

For the compound `NC(=O)c1ccc(I)c([N+](=O)[O-])c1` [Iniparib, 4-iodo-3-nitrobenzamide], the TrxR reductase activity entry in the data set with TrxR in MDA-MB-231 cells was “inhibition of the TrxR reductase activity”. For the same compound, in data set [1] (GSH-depleted HCT116, 100 μM, persisted until 24 h), the “JNK activation, time of occurrence” value is reported as 6 h. The “p38MAPK and JNK phosphorylation” value in data set [1] (GSH-depleted HCT116, 7 h or 24 h) is “activation of both p38MAPK and JNK phosphorylation”. In data set [1] (GSH-depleted HCT116, 7 h or 24 h, 100 μM Iniparib, 1 μM Auranofin, 100 nM Staurosporin), the Trx oxidation entry is listed as “oligomeric/oxidized form of Trx accumulated”. Further, the IC50 with MDA-MB-453 cells (MDA-MB-453, read-out: IC50 (cytotoxicity), MDA-MB-453, GSH depletion (Example 2)) is 16.2 µM; with MDA-MB-453 cells (MDA-MB-453, read-out: IC50 (cytotoxicity), MDA-MB-453, absence of BSO (Example 2)), 85 µM; in the data set on MDA-MB-453 cells (MDA-MB-453, read-out: IC50 (cytotoxicity), MDA-MB-453 after GSH depletion with BSO (Example 1)), 17.8 ± 2.9 µM; in the data set on MDA-MB-453 cells (MDA-MB-453, read-out: IC50 (cytotoxicity), MDA-MB-453 without BSO pre-treatment, 48 h (Example 1)), 84 ± 6.5 µM. Also, the “augmentation of cytotoxicity by GSH depletion” value with MDA-MB-453 cells (MDA-MB-453, BSO vs no BSO) was determined as 4 fold. In data set [2] (biomarker-selected (sensitive) population n=53), the median progression-free survival is listed as 5.9 months. Moreover, the “objective response rate (responders)” value is on record as 34% in data set [2] (resistant group) and 48% in data set [2] (sensitive group n=53). Further, the “2 Year Survival” value in data set [3] (Phase 2, N = 76) was 42.1 % patients. In data set [3] (Phase 2, N = 76), the “3 Year Survival” value was 23.7 % patients. Moreover, in data set [3] (single arm phase 2), the “reduced HR versus Stupp et al 2005” value is no less than 25%.
